According to PubChem BioAssay AID1996:
In brackets after ≈: the same amount, converted by molar mass.

Settings: buffer; pH 7.4; 200.0 µM

Row | SMILES | solubility kinetic [µg/mL]
1 | O=C(Cc1ccc(Br)cc1)N1CCc2ccccc2C1 | 3.9 (≈ 11.8 µM)
2 | CCCC[n+]1c(C)sc2cc(OC)ccc21.[I-] | 31.9
3 | C=CCOc1ccc(/C=C/C(=O)OCC(=O)N2CCN(C(C)=O)CC2)cc1 | > 55.9
4 | CC1CN(Cc2ccccc2)C(C)CC1O (stereo unspecified) | > 32.9
5 | CN(CC(=O)OCC(N)=O)S(=O)(=O)c1ccc(Cl)cc1 | > 48.1
6 | CCN(CC)c1ccc(CNc2nc3ccccc3n2C(C)C)cc1 | 0.3 (≈ 0.892 µM)
7 | O=C(COc1ccc(Cl)cc1)NCCc1ccccn1 | 37.2 (≈ 128 µM)
8 | O=C(COC(=O)c1ccccc1O)NCCc1c[nH]c2ccccc12 | 7.8 (≈ 23.1 µM)
9 | C/C=C/C(=O)OCC(=O)Nc1cccc(Br)c1 | 29 (≈ 97.3 µM)
10 | COc1cccc2c(O)c(-c3ccccc3)c(=O)[nH]c12 | > 40.1
11 | CCOc1ccc(C2C(C#N)=C(N)Oc3cc(C)[nH]c(=O)c32)cc1OC (stereo unspecified) | > 53
12 | O=C(NCc1nc(-c2ccc(Cl)cc2)no1)c1ccco1 | 9.4 (≈ 31 µM)
13 | CC1CC(C)CN(C(=O)Cc2c(C(=O)O)[nH]c3ccc(Cl)cc23)C1 (stereo unspecified) | > 52.3
14 | CCOc1ccc(NC(=O)NC2CCCc3ccccc32)cc1 (stereo unspecified) | 0.4 (≈ 1.29 µM)
15 | CC(C)(C)S(=O)(=O)c1cnc(N2CCOCC2)nc1N | 32.8 (≈ 109 µM)
16 | COc1ccccc1N1CCN(C(=O)c2cccs2)CC1 | > 45.4
17 | Cc1ccc(-c2csc(NS(=O)(=O)c3cccc(F)c3)n2)o1 | > 50.8
18 | CC(C)NC(=O)N(Cc1ccccc1)Cc1cccs1 | 41.8 (≈ 145 µM)
19 | O=C(O)c1c(-n2cccc2)sc2c1CCCC2 | > 37.1
20 | O=c1[nH]c(=O)n(-c2ccc(Br)cc2)c(O)c1C=NCCN1CCCCC1 | 60.5 (≈ 144 µM)
21 | NC(N)=Nc1nc2cc([N+](=O)[O-])ccc2o1 | 6.4 (≈ 28.9 µM)
22 | Cc1ccccc1/C=C\c1nc(O)c([N+](=O)[O-])c(=O)[nH]1 | > 41
23 | O=C(c1ccc([N+](=O)[O-])o1)N1CCCCCC1 | > 35.7
24 | CCCCCCC(=O)OCC(=O)c1ccc2c(c1)NC(=O)CO2 | 10.8 (≈ 33.8 µM)
25 | O=C(CCCCC(=O)N1CCOCCOCCOCC1)OCc1ccccc1 | 56.1 (≈ 143 µM)

Row | SMILES | solubility kinetic [µg/mL]
26 | O=C(NCCCN1CCOCC1)C1CC(=O)N(c2ccccc2)C1 (stereo unspecified) | > 49.7
27 | O=C(NN1C(=O)NC2(CCCCC2)C1=O)c1cc(F)cc(F)c1 | > 48.5
28 | Cc1ccccc1OCC(=O)OC(C)C(=O)NC1CCCC1 (stereo unspecified) | > 45.8
29 | Cc1nc([N+](=O)[O-])cn1CC(=O)Nc1ccc(F)c(Cl)c1 | 1.2 (≈ 3.84 µM)
30 | CC1CCN(CC(O)Cn2c3ccccc3c3ccccc32)CC1 (stereo unspecified) | 38.7 (≈ 120 µM)
31 | CC(=O)N1CCN(S(=O)(=O)c2ccc3c(c2)CCC(=O)N3)CC1 | > 50.6
32 | O=[N+]([O-])c1cccc(-c2ncc3ccccn23)c1 | 19.1 (≈ 79.8 µM)
33 | O=[N+]([O-])c1ccccc1-c1ccc(C(=S)N2CCCC2)o1 | 9.4 (≈ 31.1 µM)
34 | Cc1cc(C)c(S(=O)(=O)NCc2ccc3c(c2)OCO3)c(C)c1 | 1.7 (≈ 5.1 µM)
35 | CN1CCN(C(=S)c2ccc(-c3cc(Cl)ccc3Cl)o2)CC1 | 3.3 (≈ 9.29 µM)
36 | Cc1sc2ncnc(NS(=O)(=O)c3ccc(Cl)cc3)c2c1C | 47.8 (≈ 135 µM)
37 | Cn1ncc(C(=O)N=S(C)(=O)c2ccccc2)c1[N+](=O)[O-] (stereo unspecified) | > 46.2
38 | Cc1ccc(C(=O)NC(=S)N(C)C2CCCCC2)cc1Br | 1.1 (≈ 2.98 µM)
39 | O=C(/C=C/c1ccc2c(c1)OCO2)N1CCCCC1 | > 38.9
40 | CC(=O)CC(=O)Nc1ccc(C(N)=O)cc1 | > 33
41 | CC1CC1C(=O)Nc1cc(C(F)(F)F)ccc1N1CCOCC1 (stereo unspecified) | 40.9 (≈ 125 µM)
42 | Cc1ccccc1NC(=O)N1CCc2ccccc2C1 | > 40
43 | Cc1cc(NCCCN(C)C)n2c(nc3ccccc32)c1C#N | > 46.1
44 | Cc1ccnc(Nc2nc(-c3ccc(O)cc3O)cs2)c1 | 2 (≈ 6.68 µM)
45 | COc1ccc(OC)c(NC(=O)CN2c3cccc4cccc(c34)S2(=O)=O)c1 | 2.2 (≈ 5.52 µM)
46 | Cc1ccc(C)c(NC(=O)C(CC(=O)O)C2CCCO2)c1 (stereo unspecified) | 40.1 (≈ 138 µM)
47 | Cc1ccc(C(C)NC(=S)NC2CCCCC2)cc1C (stereo unspecified) | 7.8 (≈ 26.9 µM)
48 | N/C(=N\OC(=O)Nc1ccccc1)c1ccno1 | 24.2 (≈ 98.3 µM)
49 | COc1ccc(C(=O)CN2CCN(c3cc(C)nc4ccccc34)CC2)cc1 | 45.9 (≈ 122 µM)
50 | CC(NC(=O)COC(=O)c1ccc([N+](=O)[O-])o1)c1ccccc1 (stereo unspecified) | > 47.7

Row | SMILES | solubility kinetic [µg/mL]
51 | O=C(NC1CCCCC1)C1CC(=O)N(c2ccccc2)C1 (stereo unspecified) | 38.5 (≈ 134 µM)
52 | O=CNc1ccc(OC(=O)c2cncc(Br)c2)cc1 | 15.4 (≈ 48 µM)
53 | CN(CC(=O)NC1CC1)S(=O)(=O)c1ccc(F)cc1 | > 42.9
54 | COc1ccc(CC(=O)Nc2cc(Cl)ccc2C(=O)O)cc1 | > 48
55 | Cc1oncc1C(=O)Nc1ccc2ccccc2c1 | 9.8 (≈ 38.8 µM)
56 | COc1ccccc1CNC(=O)C(CCSC)NC(=O)c1cccc(S(=O)(=O)N2CCOCC2)c1 (stereo unspecified) | 3.4 (≈ 6.52 µM)
57 | Cc1ccc(C(=O)Nc2ccccc2Oc2ccccc2)o1 | 12.5 (≈ 42.6 µM)
58 | C=CCNC(=O)/C(=C\c1ccco1)NC(=O)c1ccco1 | > 42.9
59 | N/C(=N\OC(=O)c1ccncc1)c1cccc([N+](=O)[O-])c1 | 25.6 (≈ 89.4 µM)
60 | O=[N+]([O-])c1ccc(Cl)c2cccnc12 | 24.6 (≈ 118 µM)
61 | CC(Oc1cccc(Cl)c1)C(=O)NCc1ccc(S(N)(=O)=O)cc1 (stereo unspecified) | 53.3 (≈ 145 µM)
62 | Cc1cc(C(=O)N2C(C)CCCC2C)no1 (stereo unspecified) | > 33.3
63 | CN(C)c1ncc([N+](=O)[O-])cc1C(F)(F)F | 5.2 (≈ 22.1 µM)
64 | O=S(=O)(NC1CN2CCC1CC2)c1ccc(Cl)cc1 (stereo unspecified) | 42.6 (≈ 142 µM)
65 | CC1CC(C)CN(C(=O)COC(=O)c2cncc(Br)c2)C1 (stereo unspecified) | 42.4 (≈ 119 µM)
66 | CC1(C)CC(=O)C(C2=NC3(CCCCC3)Cc3ccccc32)=C(O)C1 | > 50.6
67 | CO/N=C(\N)c1nonc1N | 20.1 (≈ 128 µM)
68 | COc1ccc(CCNC(=O)COC(=O)/C=C/c2ccc(OC)cc2OC)cc1 | 5.1 (≈ 12.8 µM)
69 | O=C(Nc1ccncc1)Nc1ccncc1 | > 32.1
70 | Cl.Nc1cccc2c3c(oc12)CCCC3 | 7.4
71 | COc1ccccc1NC(=O)Nc1cccc(NC(C)=O)c1 | 34.2 (≈ 114 µM)
72 | COc1ccc(NC(=S)NC23CN4CN(CN(C4)C2)C3)c(OC)c1 | > 52.4
73 | COc1ccc(S(=O)(=O)NCc2cccnc2)cc1C | > 43.9
74 | Cc1cccc(NC(=O)c2cccc(N3C(=O)C4C5C=CC(C6CC56)C4C3=O)c2)c1 (stereo unspecified) | 1.5 (≈ 3.76 µM)
75 | CCOC(=O)c1sc(=NC(=O)c2ccc(Cl)s2)n(C)c1C | 0.5 (≈ 1.45 µM)

Row | SMILES | solubility kinetic [µg/mL]
76 | O=C(Cc1ccc(F)cc1)NCC1CCCO1 (stereo unspecified) | > 35.6
77 | O=C(Nc1ccccc1Cl)c1sccc1-c1ccccc1 | < 0.7
78 | CC1(C)CC(NC(=O)c2cccc(Cl)c2)CC(C)(C)N1 | > 44.2
79 | CNC(=O)c1ccccc1Nc1ccc(SC(F)F)cc1 | 28.6 (≈ 92.8 µM)
80 | CCN1CCN(c2ccc(NC(=O)c3ccc(Br)o3)cc2)CC1 | > 56.7
81 | CN(C(=O)c1ccccc1OCc1ccc(Cl)cc1)c1ccccc1 | 10.7 (≈ 30.4 µM)
82 | COc1cc(C#N)c(N=C(SCC#N)N2CCOCC2)cc1OC | > 52
83 | COC(=O)c1cc(-c2cccs2)nc2ccccc12 | 9.6 (≈ 35.6 µM)
84 | O=C(NCCNC(=O)c1ccccn1)c1ccc(-c2ccccc2)cc1 | 3.3 (≈ 9.55 µM)
85 | Cc1cccc(NC(=O)c2c(-c3ccccc3)noc2C)n1 | 34.9 (≈ 119 µM)
86 | COC(=O)Nc1ccc(S(=O)(=O)N2CCC(C(=O)NCc3ccc4c(c3)OCO4)CC2)cc1 | 4 (≈ 8.41 µM)
87 | CC(C)Oc1c(N2CCOCC2)c(=O)c1=O | > 33.8
88 | CC(=O)NCCc1cnc[nH]1 | > 23
89 | O=Cc1c(-c2ccccc2)nc2ccccn12 | > 33.3
90 | CN(Cc1ccccc1)C(=O)COC(=O)COc1ccc(Cl)cc1 | 2.9 (≈ 8.34 µM)
91 | CCC(C)(C)NC(=O)COc1ccc(OCc2ccccc2)cc1 | 9 (≈ 27.5 µM)
92 | CS(=O)(=O)N(CC(=O)Nc1ccc(F)cc1)C1CCCCC1 | 45.3 (≈ 138 µM)
93 | COCCNC(=O)CN1C2CCC1CC(O)(c1cccnc1)C2 (stereo unspecified) | > 47.9
94 | CCOC(=O)C(=O)N1CCC(Cc2ccccc2)CC1 | 35.8 (≈ 130 µM)
95 | c1ccc(CCNc2cnccn2)cc1 | > 29.9
96 | CN(C)C(=O)c1ccc(Cl)cc1[N+](=O)[O-] | > 34.3
97 | C=C(C)CSc1nc2sc3c(c2c(=O)n1-c1ccc(C)cc1)CCN(C)C3 | 25.6 (≈ 64.4 µM)
98 | CCc1noc(C)c1C(=O)Nc1cccc2ncccc12 | > 42.2
99 | CC(C)Cc1nnc(NC(=O)C2=COCCO2)s1 | > 40.4
100 | CC1CCCN(c2c([N+](=O)[O-])cc(C(=O)O)cc2[N+](=O)[O-])C1 (stereo unspecified) | 46.2 (≈ 149 µM)

Row | SMILES | solubility kinetic [µg/mL]
101 | Cc1cc(-n2c(C)cc(C(=O)CSc3ccccn3)c2C)no1 | 33.4 (≈ 102 µM)
102 | O=S(=O)(NCCCCNS(=O)(=O)c1ccc(F)cc1)c1ccc(F)cc1 | 0.7 (≈ 1.73 µM)
103 | CC1CC(C)CN(S(=O)(=O)c2ccc(C(C)(C)C)cc2)C1 (stereo unspecified) | < 0.7
104 | CCn1c(Cc2cccs2)nnc1SCC(=O)NC1CC1 | > 48.4
105 | O=Cc1c(NCc2ccccc2)c2ccccc2[nH]c1=O | 20.7 (≈ 74.4 µM)
106 | CCOC(CNc1ncnc2c1cnn2C)OCC | > 39.8
107 | CC(=O)Nc1c2c(nn1-c1cccc(Cl)c1)CS(=O)(=O)C2 | > 48.9
108 | NC(=O)C1CCN(S(=O)(=O)c2ccc3c(c2)OCCO3)CC1 | > 49
109 | Cc1nc(SCC(=O)N2CCOCC2)c2c(C)c(C)sc2n1 | 49.1 (≈ 145 µM)
110 | CCCN1CCCC(C(=O)c2cc(C)c(OC)c(C)c2)C1 (stereo unspecified) | 39 (≈ 135 µM)
111 | N#CCc1ccc(OC(=O)c2ccncc2)cc1 | > 35.7
112 | C=Cn1cc[n+](CC(=O)c2ccc(Br)s2)c1.[Br-] | 53
113 | O=C(Sc1ccc(Cl)cc1)c1ccccn1 | 1.7 (≈ 6.81 µM)
114 | NC1=NC(=O)C(Cc2ccc(OC(F)(F)F)cc2)S1 (stereo unspecified) | > 43.5
115 | O=C(O)C1CSC2(c3ccc(F)cc3)CCC(=O)N12 (stereo unspecified) | > 42.2
116 | CC(=O)Nc1c(-c2ccc(Cl)cc2)c(=O)c2ccccc2n1C | 14.8 (≈ 45.3 µM)
117 | Cc1cc(C)n2nc(SCC(=O)N3CCCC3)nc2n1 | > 43.7
118 | O=[N+]([O-])C1=CC=C2C(=NC3(CCCCC3)N2O)C1=NCCO | > 45.9
119 | O=C(O)CN1CCN(Cc2cccc(Cl)c2)C1=O | > 40.3
120 | N#Cc1cccc2cccc(S(=O)(=O)N3CCOCC3)c12 | 14.9 (≈ 49.3 µM)
121 | S=C(NC1CC1)N1CCN(C(=S)NC2CC2)CC1 | > 42.7
